Measurements published in the NIST ThermoML archive (doi:10.1021/je050462y).
± gives the expanded uncertainty stated by the source.

Experiments:
[1] = 101.33 kPa, Liquid
[2] = wn = mass fraction of the nth substance listed; settings: 101 kPa, Liquid; for viscosity: Capillary tube (Ostwald / Ubbelohde) method, w1 = 0.5; for mass density: w1 = 0.3

mass density ([1]; 313.15 K) [kg/m3]	mass density ([1]; 323.15 K) [kg/m3]	mass density ([1]; 333.15 K) [kg/m3]	SMILES	viscosity ([2]; 303.15 K) [mPa·s]	viscosity ([2]; 313.15 K) [mPa·s]	mass density ([2]; 313.15 K) [kg/m3]	viscosity ([2]; 323.15 K) [mPa·s]	mass density ([2]; 323.15 K) [kg/m3]	viscosity ([2]; 333.15 K) [mPa·s]	mass density ([2]; 333.15 K) [kg/m3]
917.2 ± 0.6	909.2 ± 0.6	900.7 ± 0.6	CC(C)(N)CO [2-amino-2-methylpropan-1-ol]	–	–	–	–	–	–	–
–	–	–	CN(CCO)CCO [N-methyldiethanolamine] + O	7.39 ± 0.07	5.08 ± 0.05	1017.1 ± 0.6	3.62 ± 0.03	1011.5 ± 0.6	2.72 ± 0.03	1004.1 ± 0.6
1084.7 ± 0.3	1077.4 ± 0.3	1070.3 ± 0.3	OCCNCCO [diethanolamine]	–	–	–	–	–	–	–
–	–	–	OCCNCCO [diethanolamine] + O	–	–	1026 ± 0.5	–	1021.3 ± 0.5	–	1014.4 ± 0.4

SMILES	mass density ([1]; 313.15 K) [kg/m3]	mass density ([1]; 323.15 K) [kg/m3]	mass density ([1]; 333.15 K) [kg/m3]	viscosity ([2]; 303.15 K) [mPa·s]	viscosity ([2]; 313.15 K) [mPa·s]	mass density ([2]; 313.15 K) [kg/m3]	viscosity ([2]; 323.15 K) [mPa·s]	mass density ([2]; 323.15 K) [kg/m3]	viscosity ([2]; 333.15 K) [mPa·s]	mass density ([2]; 333.15 K) [kg/m3]
CN(CCO)CCO [N-methyldiethanolamine]	1025 ± 0.6	1017.4 ± 0.6	1009.6 ± 0.6	–	–	–	–	–	–	–
